Test results from US20250041312A1, “METHODS OF ADMINISTERING A MODULATOR OF HEMOGLOBIN” (Global Blood Therapeutics, Inc., priority 2021, published 2025).
Read-outs that look alike come from different tables or passages of the source.

Test: SAD study in healthy volunteers: PK in plasma, whole blood, red blood cells
Assay type: in vivo, human
Details: human; for half-life: read-out: t1/2 (converted); for Tmax: median
Protocol: To evaluate the safety and tolerability of single ascending doses of Compound I, 48 healthy volunteers (42 in the fasted state and 6 in the fed state) aged 18 to 55 years old were administered single ascending doses (50 mg to 2200 mg) of Compound I, while 16 healthy volunteers (14 in the fasted state and 2 in the fed state) aged 18 to 55 years old were administered placebo in a double blind, randomized, sequential manner.
Whole blood pharmacokinetic (PK) parameters, using actual sample collection times, and hemoglobin occupancy after single ascending dose are shown in Table 5 (containing data from both healthy volunteers and SCD subjects) and Table 6 (containing data from only healthy volunteer subjects).

O=Cc1c(O)cccc1OC[C@@H]1COCCN1C(=O)c1cccnc1CCO [Compound I, (S)-2-hydroxy-6-((4-(2-(2-hydroxyethyl)nicotinoyl)morpholin-3-yl)methoxy)benzaldehyde]
Cmax (whole blood, 2200 mg, HV single 2200 mg, mean): 390 µg/mL | AUC(0-t) (whole blood, 2200 mg, HV single 2200 mg, whole blood, mean, blood collected up to day 7, read-out: AUC0-t): 48000 µg·h/mL | Cmax (whole blood, po, 50 mg, HV single oral 50 mg (Cohort 1), geometric mean): 8 µg/mL | AUC(0-t) (whole blood, po, 50 mg, HV single oral 50 mg (Cohort 1), whole blood, geometric mean, read-out: AUClast): 6810 µg·h/mL | half-life (whole blood, po, 50 mg, HV single oral 50 mg (Cohort 1), whole blood, geometric mean): 683 h | Cmax (whole blood, po, 100 mg, HV single oral 100 mg (Cohort 2), geometric mean): 17.3 µg/mL | AUC(0-t) (whole blood, po, 100 mg, HV single oral 100 mg (Cohort 2), whole blood, geometric mean, read-out: AUClast): 14300 µg·h/mL | half-life (whole blood, po, 100 mg, HV single oral 100 mg (Cohort 2), whole blood, geometric mean): 698 h | Cmax (whole blood, po, 200 mg, HV single oral 200 mg (Cohort 3), geometric mean): 34.2 µg/mL | AUC(0-t) (whole blood, po, 200 mg, HV single oral 200 mg (Cohort 3), whole blood, geometric mean, read-out: AUClast): 28600 µg·h/mL | half-life (whole blood, po, 200 mg, HV single oral 200 mg (Cohort 3), whole blood, geometric mean): 677 h | Cmax (whole blood, po, 400 mg, HV single oral 400 mg (Cohort 5), geometric mean): 87.6 µg/mL | AUC(0-t) (whole blood, po, 400 mg, HV single oral 400 mg (Cohort 5), whole blood, geometric mean, read-out: AUClast): 62200 µg·h/mL | half-life (whole blood, po, 400 mg, HV single oral 400 mg (Cohort 5), whole blood, geometric mean): 609 h | Cmax (whole blood, po, 800 mg, HV single oral 800 mg (Cohort 6), geometric mean): 149 µg/mL | AUC(0-t) (whole blood, po, 800 mg, HV single oral 800 mg (Cohort 6), whole blood, geometric mean, read-out: AUClast): 103000 µg·h/mL | half-life (whole blood, po, 800 mg, HV single oral 800 mg (Cohort 6), whole blood, geometric mean): 625 h | Cmax (whole blood, po, 1400 mg, HV single oral 1400 mg (Cohort 7), geometric mean): 230 µg/mL | AUC(0-t) (whole blood, po, 1400 mg, HV single oral 1400 mg (Cohort 7), whole blood, geometric mean, read-out: AUClast): 192000 µg·h/mL | half-life (whole blood, po, 1400 mg, HV single oral 1400 mg (Cohort 7), whole blood, geometric mean): 656 h | Cmax (whole blood, po, 2200 mg, HV single oral 2200 mg (Cohort 8), geometric mean): 387 µg/mL | AUC(0-t) (whole blood, po, 2200 mg, HV single oral 2200 mg (Cohort 8), whole blood, geometric mean, read-out: AUClast): 264000 µg·h/mL | half-life (whole blood, po, 2200 mg, HV single oral 2200 mg (Cohort 8), whole blood, geometric mean): 590 h | Tmax (HV single 50 mg, whole blood): 24 h | Tmax (HV single 100 mg, whole blood): 24 h | Tmax (HV single 200 mg, whole blood): 8 h | Tmax (HV single 400 mg, whole blood): 8 h | Tmax (HV single 800 mg, whole blood): 16 h | Tmax (HV single 1400 mg, whole blood): 12 h | Tmax (HV single 2200 mg, whole blood): 24 h | AUC(0-inf) (HV single oral 50 mg (Cohort 1), plasma, geometric mean): 34.2 µg·h/mL | Tmax (HV single oral 50 mg (Cohort 1), plasma): 0.75 h | AUC(0-inf) (HV single oral 50 mg (Cohort 1), red blood cells (calculated conc.), geometric mean): 18100 µg·h/mL | Tmax (HV single oral 50 mg (Cohort 1), red blood cells (conc. calculated from blood, plasma, hematocrit)): 24 h | AUC(0-inf) (HV single oral 50 mg (Cohort 1), whole blood, geometric mean): 7490 µg·h/mL | Tmax (HV single oral 50 mg (Cohort 1), whole blood): 24 h | AUC(0-inf) (HV single oral 100 mg (Cohort 2), plasma, geometric mean): 74.5 µg·h/mL | Tmax (HV single oral 100 mg (Cohort 2), plasma): 1 h | AUC(0-inf) (HV single oral 100 mg (Cohort 2), red blood cells (calculated conc.), geometric mean): 38500 µg·h/mL | Tmax (HV single oral 100 mg (Cohort 2), red blood cells (calculated conc.)): 24 h | AUC(0-inf) (HV single oral 100 mg (Cohort 2), whole blood, geometric mean): 15900 µg·h/mL | Tmax (HV single oral 100 mg (Cohort 2), whole blood): 24 h | AUC(0-inf) (HV single oral 200 mg (Cohort 3), plasma, geometric mean): 152 µg·h/mL | Tmax (HV single oral 200 mg (Cohort 3), plasma): 1 h | AUC(0-inf) (HV single oral 200 mg (Cohort 3), red blood cells (calculated conc.), geometric mean): 71200 µg·h/mL | Tmax (HV single oral 200 mg (Cohort 3), red blood cells (calculated conc.)): 8 h | AUC(0-inf) (HV single oral 200 mg (Cohort 3), whole blood, geometric mean): 31600 µg·h/mL | Tmax (HV single oral 200 mg (Cohort 3), whole blood): 8 h | AUC(0-inf) (HV single oral 400 mg (Cohort 5), plasma, geometric mean): 361 µg·h/mL | Tmax (HV single oral 400 mg (Cohort 5), plasma): 1 h | AUC(0-inf) (HV single oral 400 mg (Cohort 5), red blood cells (calculated conc.), geometric mean): 163000 µg·h/mL | Tmax (HV single oral 400 mg (Cohort 5), red blood cells (calculated conc.)): 10 h | AUC(0-inf) (HV single oral 400 mg (Cohort 5), whole blood, geometric mean): 67200 µg·h/mL | Tmax (HV single oral 400 mg (Cohort 5), whole blood): 8 h | AUC(0-inf) (HV single oral 800 mg (Cohort 6), plasma, geometric mean): 623 µg·h/mL | Tmax (HV single oral 800 mg (Cohort 6), plasma): 2.5 h | AUC(0-inf) (HV single oral 800 mg (Cohort 6), red blood cells (calculated conc.), geometric mean): 266000 µg·h/mL | Tmax (HV single oral 800 mg (Cohort 6), red blood cells (calculated conc.)): 36 h | AUC(0-inf) (HV single oral 800 mg (Cohort 6), whole blood, geometric mean): 111000 µg·h/mL | Tmax (HV single oral 800 mg (Cohort 6), whole blood): 16 h | AUC(0-inf) (HV single oral 1400 mg (Cohort 7), plasma, geometric mean): 1080 µg·h/mL | Tmax (HV single oral 1400 mg (Cohort 7), plasma): 2.5 h | AUC(0-inf) (HV single oral 1400 mg (Cohort 7), red blood cells (calculated conc.), geometric mean): 499000 µg·h/mL | Tmax (HV single oral 1400 mg (Cohort 7), red blood cells (calculated conc.)): 30 h | AUC(0-inf) (HV single oral 1400 mg (Cohort 7), whole blood, geometric mean): 210000 µg·h/mL | Tmax (HV single oral 1400 mg (Cohort 7), whole blood): 12 h | AUC(0-inf) (HV single oral 2200 mg (Cohort 8), plasma, geometric mean): 1430 µg·h/mL | Tmax (HV single oral 2200 mg (Cohort 8), plasma): 3.5 h | AUC(0-inf) (HV single oral 2200 mg (Cohort 8), red blood cells (calculated conc.), geometric mean): 670000 µg·h/mL | Tmax (HV single oral 2200 mg (Cohort 8), red blood cells (calculated conc.)): 24 h | AUC(0-inf) (HV single oral 2200 mg (Cohort 8), whole blood, geometric mean): 282000 µg·h/mL | Tmax (HV single oral 2200 mg (Cohort 8), whole blood): 24 h | Tmax (healthy volunteers n=6, single 100 mg, plasma): 1 h
